From paper PMC9511441, “Semisynthetic teicoplanin derivatives with dual antimicrobial activity against SARS-CoV-2 and multiresistant bacteria” (Scientific Reports, 2022)
In brackets after ≈: the same amount, converted by molar mass. Read-outs that look alike come from different tables or passages of the source.

Columns and labels:
S. aureus ATCC29213 = assay: Fluorescent competition assay, release of fluorescent vancomycin; settings: cells saturated with FL-VAN, Fig. 7 left panel
S.pyogenes = assay: MIC, broth microdilution; type: cell-based; settings: Streptococcus pyogenes
Excerpt: (§1) We determined the minimal inhibitory concentrations (MIC) of the teicoplanin conjugates for a large panel of Gram-positive bacterial strains, using vancomycin, unmodified teicoplanin, dalbavancin and oritavancin as reference compounds. […] The bacterial strains (see Suppl. Table S5 for all details) were selected to achieve maximum diversity of multidrug-resistance and include strains with known mechanisms of resistance to glycopeptides in clinical use. The S. epidermidis and S. haemolyticus strains resistant to dalbavancin and oritavancin were obtained in vitro from clinical isolates sensitive to the glycopeptide antibiotics.

S. aureus = assay: MIC, broth microdilution; type: cell-based; settings: Staphylococcus aureus
Excerpt: as §1

S. haemolyticus = assay: MIC, broth microdilution; type: cell-based; settings: Staphylococcus haemolyticus
Excerpt: as §1

E. faecalis = assay: MIC, broth microdilution; type: cell-based; settings: Enterococcus faecalis
Excerpt: as §1

E. faecium = assay: microbe, parasite or virus in culture; type: cell-based; settings: Enterococcus faecium
Excerpt: as §1

S. epidermidis = assay: microbe, parasite or virus in culture; type: cell-based; settings: Staphylococcus epidermidis
Excerpt: as §1

[1] = Cytotoxicity in mock-infected VeroE6 cells (XTT); type: cell-based, African green monkey; settings: African green monkey; mock-infected Vero E6 cells, three days, XTT
SARS-CoV-2 [2] = assay: microbe, parasite or virus in culture; type: cell-based; settings: Severe acute respiratory syndrome coronavirus 2, 72 h; Calu-3 cells, three days, XTT; read-out: EC50, CPE reduction, SARS-CoV-2 in Calu-3 cells
in vitro = settings: human
SARS-CoV-2 [3] = assay: microbe, parasite or virus in culture; type: cell-based; settings: Severe acute respiratory syndrome coronavirus 2, Vero C1008, 72 h; Vero E6 cells, three days, XTT; read-out: EC50, CPE reduction, SARS-CoV-2 in Vero E6 cells
HCoV-229E = assay: CPE reduction assay, HCoV-229E in HEL cells; type: cell-based; settings: Human coronavirus 229E, MTS, mean of 2–3 tests
[4] = Cytotoxicity in mock-infected HEL cells (MTS); type: cell-based, human; settings: human

## CN[C@H](CC(C)C)C(=O)N[C@H]1C(=O)N[C@@H](CC(N)=O)C(=O)N[C@H]2C(=O)N[C@H]3C(=O)N[C@H](C(=O)N[C@H](C(=O)O)c4cc(O)cc(O)c4-c4cc3ccc4O)[C@H](O[C@H]3C[C@](C)(N)[C@@H](O)[C@H](C)O3)c3ccc(c(Cl)c3)Oc3cc2cc(c3O[C@@H]2O[C@H](CO)[C@@H](O)[C@H](O)[C@H]2O[C@H]2C[C@](C)(NCc3ccc(-c4ccc(Cl)cc4)cc3)[C@@H](O)[C@H](C)O2)Oc2ccc(cc2Cl)[C@H]1O [ORI, oritavancin, reference compound]
S. aureus ATCC29213
  Outcompeting fluorescent vancomycin from S. aureus (in words): less pronounced
S.pyogenes; read-out: MIC value, S.pyogenes H232
  MIC: 0.125 µg/mL (≈ 0.0697 µM)
S.pyogenes; read-out: MIC value, S.pyogenes H550
  MIC: 0.0625 µg/mL (≈ 0.0349 µM)
S.pyogenes; read-out: MIC value, S.pyogenes H578
  MIC: 0.0625 µg/mL (≈ 0.0349 µM)
S. aureus; ATCC 29213 / MSSA, read-out: MIC value, S. aureus ATCC29213, MSSA
  MIC: 0.125 µg/mL (≈ 0.0697 µM)
S. aureus; MRSA / USA300, read-out: MIC value, S. aureus USA300, CA-MRSA
  MIC: 0.0625 µg/mL (≈ 0.0349 µM)
S. aureus; MRSA, read-out: Average MIC value, S. aureus CA-MRSA, 1 strain
  MIC: 0.0625 µg/mL (≈ 0.0349 µM)
S. aureus; MRSA, read-out: Average MIC value, S. aureus MRSA, 7 strains
  MIC: 0.14 µg/mL (≈ 0.0781 µM)
S. aureus; MRSA, read-out: MIC value, S. aureus 73OL, MRSA
  MIC: 0.125 µg/mL (≈ 0.0697 µM)
S. aureus; MRSA, read-out: MIC value, S. aureus 214OL, MRSA
  MIC: 0.125 µg/mL (≈ 0.0697 µM)
S. aureus; MRSA, read-out: MIC value, S. aureus 1041OL, MRSA
  MIC: 0.125 µg/mL (≈ 0.0697 µM)
S. aureus; MRSA, read-out: MIC value, S. aureus A6918, MRSA
  MIC: 0.125 µg/mL (≈ 0.0697 µM)
S. aureus; MRSA, read-out: MIC value, S. aureus A6919, MRSA
  MIC: 0.125 µg/mL (≈ 0.0697 µM)
S. aureus; MRSA, read-out: MIC value, S. aureus Mu50, MRSA
  MIC: 0.25 µg/mL (≈ 0.139 µM)
S. aureus; MRSA, read-out: MIC value, S. aureus N315, MRSA
  MIC: 0.125 µg/mL (≈ 0.0697 µM)
S. aureus; MSSA / NEWMAN, read-out: MIC value, S. aureus Newman, MSSA
  MIC: 0.0625 µg/mL (≈ 0.0349 µM)
S. aureus; MSSA, read-out: Average MIC value, S. aureus MSSA, 4 strains
  MIC: 0.078 µg/mL (≈ 0.0435 µM)
S. aureus; MSSA, read-out: MIC value, S. aureus MSSA476, MSSA
  MIC: 0.0625 µg/mL (≈ 0.0349 µM)
S. aureus; MSSA, read-out: MIC value, S. aureus SA564, MSSA
  MIC: 0.0625 µg/mL (≈ 0.0349 µM)
S. haemolyticus; S. haemolyticus mecA, 6 strains, read-out: Average MIC value
  MIC: 0.24 µg/mL (≈ 0.134 µM)
S. haemolyticus; S.haemolyticus DALB_R1, mecA, read-out: MIC value
  MIC: 0.25 µg/mL (≈ 0.139 µM)
S. haemolyticus; S.haemolyticus DALB_R2, mecA, read-out: MIC value
  MIC: 0.25 µg/mL (≈ 0.139 µM)
S. haemolyticus; S.haemolyticus DALB_R3, mecA, read-out: MIC value
  MIC: 0.25 µg/mL (≈ 0.139 µM)
S. haemolyticus; S.haemolyticus DALB_R4, mecA, read-out: MIC value
  MIC: 0.0625 µg/mL (≈ 0.0349 µM)
S. haemolyticus; S.haemolyticus DALB_R5, mecA, read-out: MIC value
  MIC: 0.125 µg/mL (≈ 0.0697 µM)
S. haemolyticus; S.haemolyticus ORI_R1, mecA, read-out: MIC value
  MIC: 0.5 µg/mL (≈ 0.279 µM)
E. faecalis; read-out: Average MIC value, E. faecalis VAN^R,TEI^R/VanA, 1 strain
  MIC: 0.125 µg/mL (≈ 0.0697 µM)
E. faecalis; read-out: Average MIC value, E. faecalis VAN^S, TEI^S, 2 strains
  MIC: 0.0625 µg/mL (≈ 0.0349 µM)
E. faecalis; read-out: MIC value, E.faecalis JH2-2
  MIC: 0.0625 µg/mL (≈ 0.0349 µM)
E. faecalis; read-out: MIC value, E.faecalis OG1RF
  MIC: 0.0625 µg/mL (≈ 0.0349 µM)
E. faecalis; read-out: MIC value, E.faecalis V583, VAN,TEI/VanA
  MIC: 0.125 µg/mL (≈ 0.0697 µM)
E. faecium; read-out: Average MIC value, E. faecium VAN^R,TEI^R/VanA, 8 strains
  MIC: 0.12 µg/mL (≈ 0.0669 µM)
E. faecium; read-out: Average MIC value, E. faecium VAN^S, TEI^S, 1 strain
  MIC: 0.0625 µg/mL (≈ 0.0349 µM)
E. faecium; read-out: MIC value, E.faecium E335, VAN,TEI,LNZ/VanA
  MIC: 0.125 µg/mL (≈ 0.0697 µM)
E. faecium; read-out: MIC value, E.faecium E355, VAN,TEI,LNZ/VanA
  MIC: 0.0625 µg/mL (≈ 0.0349 µM)
E. faecium; read-out: MIC value, E.faecium E832, VAN,TEI,LNZ/VanA
  MIC: 0.125 µg/mL (≈ 0.0697 µM)
E. faecium; read-out: MIC value, E.faecium E854, VAN,TEI,LNZ/VanA
  MIC: 0.0625 µg/mL (≈ 0.0349 µM)
E. faecium; read-out: MIC value, E.faecium E859, VAN,TEI,LNZ/VanA
  MIC: 0.0625 µg/mL (≈ 0.0349 µM)
E. faecium; read-out: MIC value, E.faecium E1114, VAN,TEI,LNZ/VanA
  MIC: 0.25 µg/mL (≈ 0.139 µM)
E. faecium; read-out: MIC value, E.faecium E1131, VAN,TEI,LNZ/VanA
  MIC: 0.125 µg/mL (≈ 0.0697 µM)
E. faecium; read-out: MIC value, E.faecium E1132, VAN,TEI,LNZ/VanA
  MIC: 0.125 µg/mL (≈ 0.0697 µM)
E. faecium; read-out: MIC value, E.faecium TX0016
  MIC: 0.0625 µg/mL (≈ 0.0349 µM)
S. epidermidis; read-out: Average MIC value, S. epidermidis mecA, 6 strains
  MIC: 1.2 µg/mL (≈ 0.669 µM)
S. epidermidis; read-out: MIC value, S.epidermidis ORI_R1, mecA
  MIC: 4 µg/mL (≈ 2.23 µM)
S. epidermidis; read-out: MIC value, S.epidermidis ORI_R2, mecA
  MIC: 0.5 µg/mL (≈ 0.279 µM)
S. epidermidis; read-out: MIC value, S.epidermidis ORI_R3, mecA
  MIC: 2 µg/mL (≈ 1.12 µM)
S. epidermidis; read-out: MIC value, S.epidermidis ORI_R4, mecA
  MIC: 0.5 µg/mL (≈ 0.279 µM)
S. epidermidis; read-out: MIC value, S.epidermidis TEI_R1, mecA
  MIC: 0.125 µg/mL (≈ 0.0697 µM)
S. epidermidis; read-out: MIC value, S.epidermidis TEI_R2, mecA
  MIC: 0.125 µg/mL (≈ 0.0697 µM)

## CCC(CC)COC(=O)[C@H](C)N[P@](=O)(OC[C@H]1O[C@@](C#N)(c2ccc3c(N)ncnn23)[C@H](O)[C@@H]1O)Oc1ccccc1 [Remdesivir, remdesivir, reference compound]
[1]
  CC50: > 100000 nM
SARS-CoV-2 [2]
  EC50: 300 ± 30 nM
In vitro
  CC50: > 50000 nM
SARS-CoV-2 [3]
  EC50: 2500 ± 200 nM

## N#C[C@@]1(c2ccc3c(N)ncnn23)O[C@H](CO)[C@@H](O)[C@H]1O [GS-441524, reference compound]
HCoV-229E
  EC50: 3000 nM
[4]
  CC50 at 5 days: > 40000 nM
